Drawing on patent US20110118238A1, “2-ANILINOPURIN-8-ONES AS INHIBITORS OF TTK/MPS1 FOR THE TREATMENT OF PROLIFERATIVE DISORDERS” (ASTRAZENECA AB, priority 2007, published 2011), this text covers IC50 for 2 molecules.

Assay [1] relates to human colon tumour cell line HT29. Description: Spindle Checkpoint Abrogation Assay (phosphohistone H3 serine 10). The assay is classed as cell-based. The conditions noted are these: HT-29, HT29 cells, paclitaxol 7.8 nM, compound 5 h, histone H3 serine 10 positive cells, read-out: SCAA: Spindle checkpoint abrogation assay activity. The text has this: Chromosome condensation in mitosis is accompanied by phosphorylation of histone H3 on serine 10. Dephosphorylation begins in anaphase and ends at early telophase, thus histone H3 serine 10 phosphorylation acts as an excellent mitotic marker. Paclitaxol is a microtubule stabilising drug which perturbs microtubule dynamics, invokes the spindle checkpoint and arrests cells in mitosis. These cells are positive for histone H3 serine 10 phosphorylation. Inhibition of the spindle checkpoint overrides the mitotic block in the presence of paclitaxol and the histone H3 serine 10 endpoint is used as a marker to determine the ability of compounds of the present invention to exit mitotic arrest prematurely.
Cells of the human colon tumour cell line HT29 were seeded into 96 well black plates (Costar, Catalogue No 3904) in phenol red free Dulbecco's Modified Eagles Medium (DMEM) supplemented with 10% (v/v) FCS and 1% (v/v) L-Glutamine and incubated overnight at 37° C. Paclitaxol was added to the cells at a concentration of 7.8 nM and the cells incubated overnight prior to compound dosing. Test compounds were solubilised in DMSO, diluted to give a range of final assay concentrations, added to cells and incubated for 5 h at 37° C. […] The raw assay data were analysed by non-linear regression analysis and used to determine an IC50 value for each compound.

Assay [2] addresses T1, N-terminal GST tagged full length human TTK kinase (Homo sapiens, UniProt P33981).
T1 construct: N-terminal GST tagged full length human TTK kinase; GST (N); made in house; host or cells: insect cells
T1 sequence (P33981 1-857): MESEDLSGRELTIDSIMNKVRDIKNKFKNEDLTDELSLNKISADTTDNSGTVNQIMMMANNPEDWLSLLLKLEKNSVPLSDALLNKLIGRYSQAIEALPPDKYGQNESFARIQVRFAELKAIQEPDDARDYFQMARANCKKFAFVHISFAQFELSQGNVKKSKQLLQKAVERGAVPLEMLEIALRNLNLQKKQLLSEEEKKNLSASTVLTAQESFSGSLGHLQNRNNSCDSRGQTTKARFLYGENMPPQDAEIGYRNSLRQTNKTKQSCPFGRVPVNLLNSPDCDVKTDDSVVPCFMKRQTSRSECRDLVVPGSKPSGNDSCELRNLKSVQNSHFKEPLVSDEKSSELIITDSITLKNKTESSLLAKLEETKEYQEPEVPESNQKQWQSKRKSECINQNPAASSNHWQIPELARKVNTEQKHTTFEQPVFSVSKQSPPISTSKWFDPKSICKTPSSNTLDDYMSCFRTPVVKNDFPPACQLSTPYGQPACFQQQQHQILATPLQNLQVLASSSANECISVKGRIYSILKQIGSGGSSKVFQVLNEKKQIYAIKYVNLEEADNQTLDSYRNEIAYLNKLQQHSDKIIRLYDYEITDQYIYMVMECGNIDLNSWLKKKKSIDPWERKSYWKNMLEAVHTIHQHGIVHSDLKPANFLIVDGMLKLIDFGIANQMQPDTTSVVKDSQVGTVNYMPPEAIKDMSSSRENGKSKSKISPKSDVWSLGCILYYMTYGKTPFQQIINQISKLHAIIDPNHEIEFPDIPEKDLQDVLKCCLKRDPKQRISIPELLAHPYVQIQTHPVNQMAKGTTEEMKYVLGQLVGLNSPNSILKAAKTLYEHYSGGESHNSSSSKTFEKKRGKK
Description: In Vitro TTK Kinase Assay 2 (Caliper LabChip LC3000). The class given is biochemical. The conditions noted are these: recombinant TTK, 12 μM ATP, read-out: EAA2: Enzyme Assay Activity (In Vitro TTK kinase assay 2). The procedure:
Each reaction was stopped by the addition of EDTA to a concentration of 40 mM in a solution which also comprised 0.1% coating reagent (Caliper LS), 100 mM HEPES pH 7.5, 0.015% v/v Brij™-35 and 5% DMSO. The stopped enzyme reactions were sipped through capillaries onto a Caliper chip where the peptide substrate and phosphorylated product were separated and detected via laser-induced fluorescence.

pIC50: −log10 of the molar value.

As to `Cn1c(=O)n(C2CCCC2)c2nc(Nc3ccc(S(C)(=O)=O)cc3F)ncc21` [Example 3, 9-Cyclopentyl-2-{[2-fluoro-4-(methylsulfonyl)phenyl]amino}-7-methyl-7,9-dihydro-8H-purin-8-one], the pIC50 was 5.64 in assay [1] and 6.88 in assay [2].

On to `CN1CCN(S(=O)(=O)c2ccc(Nc3ncc4c(n3)n(C3CCCC3)c(=O)n4C)cc2)CC1` [Example 13, 9-Cyclopentyl-7-methyl-2-({4-[(4-methylpiperazin-1-yl)-sulfonyl]-phenyl}amino)-7,9-dihydro-8H-purin-8-one], for which the pIC50 in assay [1] was 5.43; in assay [2], 6.20.
